# Laboratory results: US20160158253A1, “TREATMENT OF PANCREATIC CANCER WITH A COMBINATION OF A HYPOXIA-ACTIVATED PRODRUG AND A TAXANE” (THRESHOLD PHARMACEUTICALS, INC., priority 2013, published 2016)
# Marks after values point to notes of the source that are not given here.
# Legend:
# [1] = Treatment-induced body weight loss in PDAC tumor bearing and CD-1 non-tumor bearing mice; assay type: in vivo
# Description: Another series of studies were conducted to investigate the treatment-induced body weight (BW) loss in both PDAC tumor bearing animals and CD-1 immunocompetent mice. Body weight was measured daily or twice a week.
# [2] = Hematological testing (Hemavet 950 blood analyzer); assay type: in vivo, PANC-1 tumor bearing nude mice and CD-1 mice; details: 24 hrs after last treatment; T and G+nP vs V, triplet vs G+nP
# Description: To determine the effect of combination therapy on hematopoiesis, the same treatment was employed in PANC-1 tumor bearing nude mice as well as immunocompetent CD-1 mice. Twenty-four hrs. after the last treatment, the animals were euthanized under CO2, blood was collected via heart puncture, and hematological analysis was performed using a Hemavet 950™ blood analyzer. As shown in FIG. 2 (mean±SEM), G+nP combination therapy or T monotherapy reduced neutrophils, lymphocytes, and monocytes, and complete white blood cell count (WBC), compared with V(*p<0.05 compared with V).
# [3] = tested on: pancreatic ductal adenocarcinoma (PDAC); details: TH-302 added to gemcitabine (GEM) versus GEM only; cited from earlier work
# [4] = von Frey neuropathy assay (mechanical hyperalgesia); assay type: in vivo; details: male CD-1 mice; compared to V, from 9 days after initiation of treatment
# Description: To determine the effect of combination therapy on the nervous system, male CD-1 mice were randomly divided into 4 groups with 10 mice each. Mechanical hyperalgesia tests were performed prior to the initial treatment and during the study by a trained observer who was unaware of the animal group identities. […] This hyperalgesia persisted to 37 days with peaks at day 16 and day 23 (p<0.001, two-way ANOVA), and gradually returned to baseline at day 43. […] There was no difference between G+nP+T combination therapy treated and G+nP combination therapy treated animals.
# [5] = Clinical injection site and administration reactions of TH-302; assay type: in vivo, human
# From the text: Care in the administration of TH 302 will reduce the chance of perivenous infiltration. If any signs or symptoms of extravasation occur, the administration of TH 302 should be immediately terminated and restarted in another vein. TH 302 should always be administered via a freely flowing i.v. line, preferably, where feasible, through a central venous catheter. Administration through small veins, particularly on the hands and feet is discouraged. Because of the progressive nature of extravasation reactions, close observation and plastic surgery consultation is recommended.
# TH 302 administration reactions have been observed. […] It is recommended that a steroid such as dexamethasone (or equivalent) be included in the antiemetic regimen prior to administration. Symptoms and signs of hypersensitivity include fever, myalgia, headache, rash, pruritus, urticaria, angioedema, chest discomfort, dyspnea, coughing, cyanosis, and hypotension. If the nature and the severity of the reaction require termination of treatment, it should be determined if the reaction may or may not be an immunoglobulin E mediated process. […] If the event is clearly anaphylaxis, then epinephrine ( 1/1000, 0.3 to 0.5 mL given subcutaneously or equivalent) should be considered as well as standard treatment approaches. […] Reactions to the administration of TH 302 should be assessed and treated in a similar manner. […]
# [6] = tested on: PANC-1 human PDAC xenograft; assay: Antitumor activity in PANC-1 PDAC xenograft model; assay type: in vivo, nude mice
# Description: (§1) Dosing for the animal studies described below were selected as follows. In some current human clinical trials, TH-302 is given on once-a-week schedules (QW) of three weeks on, one week off (at a dose of 240 or 340 mg/m^2). […] In xenograft models, gemcitabine is administered at 60 or 80 mg/kg in four three-day cycles (Q3D×4) (Teicher et al., Cancer Res. 6:1016, 2000; Marriman et at., invest New Drugs. 14:243, 1996). […] The therapy was administered every three days for five cycles (Q3D×5).
# (§2) The animal studies were conducted using, xenograft models for pancreatic ductal adenocarcinoma (PDAC). Tumors were generated in the flanks of nude mice by subcutaneous injection of established human PDAC cell lines. Four PDAC xenograft models were established by subcutaneous implantation of either Hs766t, MIA PaCa-2, PANC-1 or BxPC-3 cells into the flank of nude mice. Mice were implanted subcutaneously in the right flank with 5×10^6 cells in 30% Matrilgel™ at a dose volume of 200 μL. Mice bearing similar tumor size were randomly assigned into different groups when tumor size reached 150 mm^3. […] Antitumor activity of the G+nP+T triplet combination therapy was assessed, and compared with the G+nP doublet combination therapy.
# (§3) Tumor growth delay 1000 mm^3 (TGD1000) was determined as the difference in time required for the mean tumor size to reach 1000 mm^3 between treated group and vehicle control group. TGD1000 of T monotherapy and G+nP doublet combination therapy groups was 47 and 35 days, respectively, while TGD1000 of G+nP+T triplet combination therapy group was 53 days. […] (see Table 1, below).
# (§4) In three of the four models, the triplet combination therapy increased the complete response rate (CR) relative to the G+nP combination therapy or the T monotherapy. CR was defined as disappearance of tumor or tumor size is <100 mm^3 at a study point. Of note, the CR rate of the G+nP+T combination therapy in the PANC-1 model reached 100%, compared to 0% and 60% in the T monotherapy and G+nP combination therapy groups, respectively. In the MIA PaCa-2 model, CR rate in the triplet group was 90%, compared to 0 and 10% in the T monotherapy and G+nP doublet combination therapy groups, respectively.
# [7] = tested on: MIA PaCa-2 human PDAC xenograft; assay: Antitumor activity in MIA PaCa-2 PDAC xenograft model; assay type: in vivo, nude mice
# Description: as §1, §2, §3, §4
# [8] = tested on: BxPC-3 human PDAC xenograft; assay: Antitumor activity in BxPC-3 PDAC xenograft model; assay type: in vivo, nude mice
# Description: as §1, §2, §3, §4
# [9] = tested on: Hs766t human PDAC xenograft; assay: Antitumor activity in Hs766t PDAC xenograft model; assay type: in vivo, nude mice; details: for MT (Median Time to reaching the size of 1000 mm^3): Kaplan-Meier; for TGI (Tumor Growth Inhibition): T 50 mg/kg i.p., nP 30 mg/kg i.v., G 60 mg/kg i.p.
# Description: as §1, §2, §3, §4
# [10] = tested on: cell lines with mutations in BRCA1 or BRCA2; assay: Sensitivity of BRCA1 or BRCA2 mutated cell lines to TH-302; assay type: cell-based
# From the text: A human clinical trial can include analysis of any of a series of biomarkers. […] The prevalence of BRCA1 and BRCA2 mutations in pancreatic cancer patients is between 5% and 19%, Thus, a trial can include collection of serum, plasma, and tissue samples for analysis of any markers useful for identifying suitable patient populations and/or liar monitoring the course of therapy.
# PANC-1 xenograft tumors = assay: Pharmacodynamic biomarkers by histology, immunohistochemistry or in situ assay in PANC-1 tumors; assay type: in vivo, nude mice
# Description: We used a panel of biomakers to characterize Hs766t, MIA PaCa-2, PANC-1 and BxPC3 xenograft tumors. […] We chose a moderate hypoxic level tumor model, PANC-1, to investigate the pharmacodynamic changes caused by the different treatments, PANC-1 tumor-bearing animals were treated with vehicle, TH-302, G+nP, and G+nP+T when tumor size was approximately 500 mm^3. One day after the last treatment, tumors were harvested, fixed, paraffin-embedded, and sectioned for staining with a panel of histology and immunohistochemistry markers.
# Similar to as observed for apoptosis, γH2AX-positive cells were increased in all three drug treated groups compared with V. 31±1.3 positive cells/field in the G+nP+T triplet group, compared with 19 in T alone or G+nP and less than 4 in V (p<0.05). Cells with DNA damage were evenly distributed in both the hypoxic and oxic compartments in non-necrotic regions. Ki67 is a marker of cell proliferation, labeling all active phases of the cell cycle including S, G2, and mitosis.
# To determine the effect of combination therapy on tumor microenvironment, tumor stroma and hypoxia were investigated. Tumor stroma is composed of extracellular matrix protein and cellular elements. Thus, collagen I and III, as main parts of extracellular matrix were evaluated by Picrosirius red staining. Activated fibroblasts in the stroma were analyzed by α-SMA. […] There was no co-localization between exogenous pimonidazole- and endogenous CAIX-positive cells, CA-IX was found in the necrotic cells as well.
# pancreatic cancer = details: Phase 3 trial, pancreatic cancer patients; cited from earlier work
# [11] = PANC-1, TV 1000 mm^3 as endpoint
# [12] = MIA PaCa-2, TV 1000 mm^3 as endpoint
compound,measurement,setting,value
"Cn1c(COP(=O)(NCCBr)NCCBr)cnc1[N+](=O)[O-] [TH-302, (2-bromoethyl)({[(2-bromoethyl)amino][(2-nitro-3-methylimidazol-4-yl)methoxy]phosphoryl})amine]",maximal body weight loss,"[1]; BxPC3, Nude ♀ (n = 10)",0%
same,maximal body weight loss,"[1]; Hs766t, Nude ♀ (n = 10)",0%
same,maximal body weight loss,"[1]; MIA PaCa-2, Nude ♀ (n = 10)",0%
same,maximal body weight loss,[1]; Non-tumor CD-1 ♀ (n = 6),0%
same,maximal body weight loss,[1]; Non-tumor CD-1 ♂ (n = 10),0%
same,maximal body weight loss,"[1]; PANC-1 #1, Nude ♀ (n = 10)",0%
same,maximal body weight loss,"[1]; PANC-1 #2, Nude ♀ (n = 5)",0%
same,maximal body weight loss,"[1]; PANC-1 #3, Nude ♀ (n = 10)",0%
same,maximal BW loss (percentage of mean maximal BW loss compared with pretreatment),"[1]; across the 8 studies, G+nP range in 7 of 8 studies",0%
same,"neutrophils, lymphocytes, monocytes and complete white blood cell count (WBC)",[2],reduced
same,progression-free survival,[3],significant increase
same,hind-paw mechanical hyperalgesia,[4],no mechanical hyperalgesia
same,injection site reactions reported,[5]; i.v. administration,Supravenous erythema and hyperpigmentation
same,administration reactions observed,[5]; responded to steroid and antihistamine treatment,lip swelling and urticaria
same,CR (Complete Response) of 10,[6]; PANC-1,0 of 10
same,TGD1000 (vs. vehicle),"[6]; PANC-1, Q3D×5",7 days
same,TGI (Tumor Growth Inhibition),"[6]; PANC-1, T 50 mg/kg i.p., nP 30 mg/kg i.v., G 60 mg/kg i.p., Q3D×5",44.5%
same,ILS (Increased Life Span),[6]; [11],48%
same,MT (Median Time to reaching the size of 1000 mm^3),[6]; [11],31 days
same,CR rate,[6]; PANC-1 model,0%
same,CR (Complete Response) of 10,[7]; MIA PaCa-2,0 of 10
same,TGD1000 (vs. vehicle),"[7]; MIA PaCa-2, Q3D×5",6 days
same,TGI (Tumor Growth Inhibition),"[7]; MIA PaCa-2, T 50 mg/kg i.p., nP 30 mg/kg i.v., G 60 mg/kg i.p., Q3D×5",27%
same,ILS (Increased Life Span),[7]; [12],26%
same,MT (Median Time to reaching the size of 1000 mm^3),[7]; [12],34 days
same,CR rate,[7]; MIA PaCa-2 model,0%
same,CR (Complete Response) of 10,[8],0 of 10
same,TGD1000 (vs. vehicle),[8]; Q3D×5,11 days
same,TGI (Tumor Growth Inhibition),"[8]; T 50 mg/kg i.p., nP 30 mg/kg i.v., G 60 mg/kg i.p., Q3D×5",43%
same,ILS (Increased Life Span),[8]; TV 1000 mm^3 as endpoint,52%
same,MT (Median Time to reaching the size of 1000 mm^3),[8]; TV 1000 mm^3 as endpoint,24 days
same,MT (Median Time to reaching the size of 1000 mm^3),[9]; TV 1000 mm^3 as endpoint,"59.5*^,a day"
same,MT (Median Time to reaching the size of 1000 mm^3),"[9]; TV 1000 mm^3 as endpoint, listed as T",59.5 days
same,TGD1000 (vs. vehicle),"[9]; Q3D×5, delay of mean tumor size to 1000 mm^3",47 days
same,TGI (Tumor Growth Inhibition),[9]; Q3D×5,82.1%*
same,TGI (Tumor Growth Inhibition),"[9]; Q3D×5, listed as T",82.1%
same,ILS (Increased Life Span),[9]; TV 1000 mm^3 as endpoint,297%
same,CR (Complete Response) of 10,[9]; tumor gone or <100 mm^3,0 of 10
same,sensitivity to TH-302,[10],Enhanced sensitivity
same,γH2AX-positive cells (DNA damage),PANC-1 xenograft tumors; V less than 4,19 positive cells/field
same,extracellular collagen (Picrosirius red staining),PANC-1 xenograft tumors; morphometric analysis,no effect
same,α-SMA expression (activated fibroblasts in stroma),PANC-1 xenograft tumors; morphometric analysis,no effect
same,number of apoptotic cells (TUNEL assay),"PANC-1 xenograft tumors; non-necrotic regions, V 0.8±0.1",3±0.2 per field
same,tumor necrotic fraction (Masson's Trichrome histology staining),"PANC-1 xenograft tumors; one day after last treatment, V 9%",35%
same,hypoxic fraction (HF),"PANC-1 xenograft tumors; pimonidazole, V 12.4+2%",10.6±1.1%
Nc1ccn([C@@H]2O[C@H](CO)[C@@H](O)C2(F)F)c(=O)n1 [gemcitabine],median overall survival,pancreatic cancer,6.6 months
